Measurements: patent US7259004B1, “Endophytic streptomycetes from higher plants with biological activity” (Montana State University, priority 2002, dated 2007)

System: M. tuberculosis MDR-P (drug resistant)
Assay: microbe, parasite or virus in culture
Format: cell-based, Mycobacterium tuberculosis
Conditions: for IC50 M. tuberculosis MDR-P (drug resistant): 7H11 agar with 10% OADC

Compound	IC50 (Mycobacterium tuberculosis, read-out: IC50 M. tuberculosis MDR-P (drug resistant))	IC50 M. tuberculosis MDR-P (drug resistant)
CO[C@H]1/C=C/O[C@@]2(C)Oc3c(C)c(O)c4c(O)c(c(/C=N/N5CCN(C)CC5)c(O)c4c3C2=O)NC(=O)/C(C)=C\C=C\[C@H](C)[C@H](O)[C@@H](C)[C@@H](O)[C@@H](C)[C@H](OC(C)=O)[C@@H]1C [Rifampicin, reference compound]	> 150 µg/mL	–
munumbicin B	–	10 micrograms/ml
munumbicin C	–	>125 micrograms/ml
